Experimental data: article PMC4627231, “Targeting the sugar metabolism of tumors with a first-in-class 6-phosphofructo-2-kinase (PFKFB4) inhibitor” (Oncotarget, 2015)

Tests used:
[1] = tested on: intratumoral F2,6BP, LLC xenografts; test: Intratumoral F2,6BP in LLC tumors; format: in vivo, C57BL/6 mice; conditions: after 10 days of treatment, one hour after dose by gavage
Protocol: Cells or tissues were prepared as previously described and F2,6BP content measured using a coupled enzyme reaction following the method of Van Schaftingen et al and normalized to total cellular protein measured by the bicinchoninic acid assay (Thermo Scientific). All data are expressed as the mean ± SD of three experiments. Statistical significance was assessed by the two-sample t test (independent variable).
(§1) At the end of the experiment, one hour after a single dose of DMSO or 5MPN, animals were euthanized, tumors removed and sections fixed in 10% formaldehyde for immunohistochemistry or snap-frozen in liquid nitrogen for analyses. Subsets of tumor-bearing mice (n=3) were administered a single dose of either DMSO or 5MPN one hour prior to imaging then injected i.p. with 2-[^18F]-fluoro-2-deoxyglucose (FDG, 150μCi, 100 μl) and, 45 min after FDG injection, were anesthetized with 2% isoflurane in oxygen and transferred to a R-4 Rodent Scanner (CTI Concorde Microsystems) micro-positron emission tomograph to capture images as previously described. Regions of interest in the tumors and cerebellum were quantified in quadruplicate and expressed as the mean ± SD of the ratio of tumor:cerebellar FDG uptake. Animal experiments were approved by the University of Louisville Institutional Animal Care and Use Committee.

[2] = tested on: C57BL/6 mice; test: Two-week oral toxicity study; format: in vivo; conditions: 120 mg/kg PO, two weeks
Protocol: Given the potential usefulness of oral administration in terms of cost and convenience, we elected to pursue this route in subsequent toxicity and efficacy pre-clinical studies. Initially, we dosed C57BL/6 mice with 120 mg/kg PO (dose chosen based on a dose escalation trial) for two weeks and analyzed the effect on complete blood counts, electrolytes, hepatic and renal function, body mass and the gross and histological appearance of the brain, heart, lungs, liver, kidneys and spleen. […] We confirmed that 5MPN caused a G1 arrest in LLC cells in vitro similar to H460 cells (Figure 4G) and then examined the number of Ki67-positive cells since Ki67 expression correlates with later S and G2 phases of the cell cycle.

[3] = tested on: panel of 97 protein kinases; test: KINOMEscan active-site dependent competition binding assay; conditions: 10 μM, data not shown
Protocol: The fructose-6-phosphate kinase activity of human recombinant PFKFB4 and human recombinant PFKFB3 in the presence of DMSO ± indicated concentrations of 5MPN was assayed as previously described. The activity of 5MPN against 97 kinases was examined using a commercially available active-site dependent competition binding assay core service (KINOMEscanEDGE) that quantifies the capacity of test agents to compete with an immobilized, active-site directed ligand using a DNA-tagged kinase and immobilized ligand and compound.

[4] = molecular target: human recombinant PFKFB3 (Homo sapiens, UniProt Q16875); test: In vitro kinase assay with purified recombinant human PFKFB3; format: biochemical; conditions: 10 μM
Protocol: Figure 1 Compound 5MPN inhibits recombinant PFKFB4 enzyme activity A. Representation of the 5MPN molecule docked in the crystal structure of rat testes PFKFB4. 5MPN is shown in thicker stick representation than the surrounding protein residues. B. Molecular structure of 5MPN (MW, 305.3 Da). In vitro kinase assays using purified recombinant human PFKFB4 were performed as described in the presence or absence of 0.1, 1 or 10 μM 5MPN. Michaelis-Menten C. and Lineweaver-Burk double reciprocal D. plots examining PFKFB4 enzyme activity as a function of F6P concentration (0 - 2000 μmol/L) are shown. E. In vitro kinase assays using purified recombinant human PFKFB3 were performed as described in the presence or absence of 0.1, 1 or 10 μM 5MPN and the Michaelis-Menten plot examining PFKFB3 enzyme activity as a function of F6P concentration (0 - 400 μmol/L) is shown. Data shown are representative of three independent experiments. […] The activity of 5MPN against 97 kinases was examined using a commercially available active-site dependent competition binding assay core service (KINOMEscanEDGE) that quantifies the capacity of test agents to compete with an immobilized, active-site directed ligand using a DNA-tagged kinase and immobilized ligand and compound.

[5] = tested on: Large T antigen-immortalized, tamoxifen-inducible PFKFB4-/- fibroblasts; test: Viable cell count (trypan blue exclusion); format: cell-based, mice; conditions: fibroblasts ± 10 μM 4HT, 10 μM 5MPN, 24 hours
From the text: H460, H1299, H441, H522 and A549 non-small cell lung cancer (NSCLC), MDA-MB-231 (breast), LNCaP (prostatic) and HCT116 (colon) adenocarcinoma and Lewis lung carcinoma (LLC) cell lines were obtained from ATCC (authenticated by STR analysis) and were used within 6 months of acquisition. PFKFB4^−/− ear pinna fibroblasts isolated from TamCre/loxP/PFKFB4^−/− mice were immortalized as described previously. Normal bronchial epithelial cells (NHBE) were obtained from Lonza and NHBE cells expressing telomerase, SV40 large T antigen and activated Ras (hT/LT/Ras) were a gift from Dr. B. J. Rollins, Dana Farber Cancer Institute. All cell lines were tested and found negative for mycoplasma (PCR Mycoplasma Detection Kit, ABM). Cell lines were grown in DMEM (A549, LNCaP, MDA-MB-231, LLC and PFKFB4^−/−), RPMI 1640 (H460, H1299, H441, H522) and McCoy's 5A media (HCT116) (all from Invitrogen) containing 10% fetal calf serum (Hyclone). NHBE and hT/LT/Ras cells were grown in BEGM containing SingleQuots (Lonza). All lines were cultured at 37°C in 5% CO2. […]
Viability was determined using trypan blue exclusion as previously described. […] Cells excluding trypan blue were counted using a standard hemocytometer (Hausser Scientific) to determine total numbers of viable cells. Data are expressed as mean ± SD of three experiments.

[6] = tested on: 2-[18F]-fluoro-2-deoxyglucose uptake by LLC xenografts; test: FDG uptake by micro-PET in LLC tumors; format: in vivo, C57BL/6 mice; conditions: 120 mg/kg by gavage, once, one hour before imaging
Protocol: as §1

Sequence of human recombinant PFKFB3 (Q16875 whole entry): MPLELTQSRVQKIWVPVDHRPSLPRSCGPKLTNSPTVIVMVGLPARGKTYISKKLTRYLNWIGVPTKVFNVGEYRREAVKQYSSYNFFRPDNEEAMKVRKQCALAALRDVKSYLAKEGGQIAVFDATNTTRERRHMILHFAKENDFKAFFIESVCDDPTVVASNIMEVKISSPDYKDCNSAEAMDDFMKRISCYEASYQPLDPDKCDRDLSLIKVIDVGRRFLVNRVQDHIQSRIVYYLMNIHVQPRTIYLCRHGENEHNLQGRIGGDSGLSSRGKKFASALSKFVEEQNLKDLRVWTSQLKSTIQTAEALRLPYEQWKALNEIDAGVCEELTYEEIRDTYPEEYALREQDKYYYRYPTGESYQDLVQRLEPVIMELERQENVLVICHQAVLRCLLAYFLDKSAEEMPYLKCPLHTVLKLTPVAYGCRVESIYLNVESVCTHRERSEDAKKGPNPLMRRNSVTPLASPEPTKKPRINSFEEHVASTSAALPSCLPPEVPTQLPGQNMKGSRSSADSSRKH

## COc1cccc2c(NCCCCCO[N+](=O)[O-])ccnc12 [Compound 5MPN, 5-(n-(8-methoxy-4-quinolyl)amino)pentyl nitrate]
[1]
  intratumoral F2,6BP: marked reduction
[2]
  signs of toxicity (blood counts, electrolytes, hepatic and renal function, body mass, organ histology, behavior): no signs of toxicity
[3]
  inhibition of a panel of 97 protein kinases: not inhibited
[4]
  inhibition of PFKFB3 kinase activity: no inhibition of kinase activity
[5]
  effect of genomic deletion of Pfkfb4 on anti-proliferative effect: sensitized
[6]
  2-[18F]-fluoro-2-deoxyglucose uptake (positron emission tomography): marked reduction
